Several values for one entry are separate records, joined by “and”; a condition that tells them apart may be missing. Equal entries are not always repeated.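 A five-concentration, 48-hour dose response in 96-well plates underlies each endpoint, interpolated linearly between surrounding concentrations. Abbreviation: GI50, concentration required for 50% inhibition of growth. TGI: concentration producing complete growth inhibition.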
Columns and labels:
Test in all cases: growth of human tumour cells (NCI), 48 h
786-0 renal = system: 786-0 renal
BT-549 breast = system: BT-549 breast
IGROV1 ovarian = system: IGROV1 ovarian
NCI-H460 lung = system: NCI-H460 lung
NCI-H522 lung = system: NCI-H522 lung
NCI/ADR-RES ovarian = system: NCI/ADR-RES ovarian
SF-268 CNS = system: SF-268 CNS
SN12C renal = system: SN12C renal
UO-31 renal = system: UO-31 renal
MALME-3M melanoma = system: MALME-3M melanoma

For O=C(NNc1ccc(F)cc1)C1CCC(CNS(=O)(=O)c2ccc(Cl)c(Cl)c2)CC1 (centres undefined), the GI50 (786-0 renal) was 17.9 µM, the TGI (786-0 renal) was over 50 µM and the GI50 (BT-549 breast) was 19.1 µM. The TGI (BT-549 breast) was over 50 µM, the GI50 (IGROV1 ovarian) was 6.79 µM and the TGI (IGROV1 ovarian) was over 50 µM. For the same compound, the GI50 (NCI-H460 lung) was 3.18 µM, the TGI (NCI-H460 lung) was over 50 µM and the GI50 (NCI-H522 lung) was 22.8 µM. For the same compound, the TGI (NCI-H522 lung) was over 50 µM, the GI50 (NCI/ADR-RES ovarian) was 8.79 µM and the TGI (NCI/ADR-RES ovarian) was 31.5 µM. For the same compound, the GI50 (SF-268 CNS) was 4.76 µM, the TGI (SF-268 CNS) was over 50 µM and the GI50 (SN12C renal) was 7.97 µM. For the same compound, the TGI (SN12C renal) was over 50 µM, the GI50 (UO-31 renal) was 16.8 µM and the TGI (UO-31 renal) was over 50 µM.
In the case of CC(=O)[CH-]C(=O)c1ccccc1.CC(=O)[CH-]C(=O)c1ccccc1.CC[C@H](/C=C/C(C)[C@H]1CCC2[C@@H]3CC=C4C[C@@H]([O-])CC[C@]4(C)C3CC[C@@]21C)C(C)C.CC[O-].[Ti+4] (some centres undefined), the GI50 (786-0 renal) is reported as over 100 µM, the TGI (786-0 renal) is reported as over 100 µM and the GI50 (IGROV1 ovarian) is reported as over 100 µM. The TGI (IGROV1 ovarian) was over 100 µM, the GI50 (MALME-3M melanoma) was over 100 µM and the TGI (MALME-3M melanoma) was over 100 µM. For the same compound, the GI50 (NCI-H460 lung) was over 100 µM, the TGI (NCI-H460 lung) was over 100 µM and the GI50 (NCI-H522 lung) was 44.8 µM. For the same compound, the TGI (NCI-H522 lung) was over 100 µM, the GI50 (SF-268 CNS) was over 100 µM and the TGI (SF-268 CNS) was over 100 µM. The GI50 (SN12C renal) was over 100 µM, the TGI (SN12C renal) was over 100 µM and the GI50 (UO-31 renal) was over 100 µM. For the same compound, the TGI (UO-31 renal) was over 100 µM.
Cc1cc(=O)n2c3c(c4c(cc13)c(CO)cc(=O)n4C)OC2 showed a TGI (786-0 renal) of over 100 µM, a TGI (IGROV1 ovarian) of over 100 µM and a TGI (MALME-3M melanoma) of 28.5 µM. It also gave a TGI (NCI-H460 lung) of over 100 µM, a TGI (NCI-H522 lung) of 17.7 µM and a TGI (SF-268 CNS) of 52.6 µM. It also gave a TGI (SN12C renal) of over 100 µM and a TGI (UO-31 renal) of 40.2 µM.
Work on COC(=O)NN1C(C)=C(C(=O)OC)C2(C#N)C(C(=O)OC)=C(C)N(NC(=O)OC)C12N (centres undefined) yielded a TGI (786-0 renal) of over 100 µM, a TGI (IGROV1 ovarian) of over 100 µM and a TGI (MALME-3M melanoma) of over 100 µM. It also gave a TGI (NCI-H460 lung) of over 100 µM, a TGI (NCI-H522 lung) of over 100 µM and a TGI (SF-268 CNS) of over 100 µM. For the same compound, the TGI (SN12C renal) was over 100 µM and the TGI (UO-31 renal) was over 100 µM.
Cc1ccc(NC(=O)CC/C(CC(=O)C(C)(C)C)=N/NC(=O)C[N+](C)(C)C)cc1C gave a TGI (786-0 renal) of 52.9 µM, a TGI (IGROV1 ovarian) of over 100 µM and a TGI (MALME-3M melanoma) of over 100 µM. For the same compound, the TGI (NCI-H460 lung) was over 100 µM, the TGI (SF-268 CNS) was over 100 µM and the TGI (SN12C renal) was over 100 µM. It also gave a TGI (UO-31 renal) of over 100 µM.
CCN(CC)CCOc1ccc(/C=C2\C[C@H]3[C@H]4CC=C5C[C@@H](O)CC[C@]5(C)[C@H]4CC[C@]3(C)[C@H]2O)cc1OC gave a GI50 (786-0 renal) of 5.09 µM, a TGI (786-0 renal) of 16.1 µM and a GI50 (IGROV1 ovarian) of 1.23 µM. The TGI (IGROV1 ovarian) was over 50 µM, the GI50 (NCI-H460 lung) was 13.1 µM and the TGI (NCI-H460 lung) was over 50 µM. The GI50 (NCI-H522 lung) was 0.216 µM, the TGI (NCI-H522 lung) was over 50 µM and the GI50 (NCI/ADR-RES ovarian) was 9.98 µM. For the same compound, the TGI (NCI/ADR-RES ovarian) was 22 µM, the GI50 (SF-268 CNS) was 14.9 µM and the TGI (SF-268 CNS) was 47 µM. For the same compound, the GI50 (SN12C renal) was 6.78 µM, the TGI (SN12C renal) was 14 µM and the GI50 (UO-31 renal) was 7.23 µM. It also gave a TGI (UO-31 renal) of 18 µM.
In the case of C=C(C)C1CC=C(C)CC1 (centres undefined), the GI50 (786-0 renal) is reported as over 100 µM, the TGI (786-0 renal) is reported as > 100 µM and 1620 µM and the GI50 (IGROV1 ovarian) is reported as over 100 µM. For the same compound, the TGI (IGROV1 ovarian) was > 100 µM and 1830 µM, the GI50 (MALME-3M melanoma) was over 100 µM and the TGI (MALME-3M melanoma) was > 100 µM and 1690 µM. For the same compound, the GI50 (NCI-H460 lung) was over 100 µM, the TGI (NCI-H460 lung) was > 100 µM and 1730 µM and the GI50 (NCI-H522 lung) was over 100 µM. For the same compound, the TGI (NCI-H522 lung) was > 100 µM and 1710 µM, the GI50 (SF-268 CNS) was over 100 µM and the TGI (SF-268 CNS) was > 100 µM and 1680 µM. For the same compound, the GI50 (SN12C renal) was over 100 µM, the TGI (SN12C renal) was > 100 µM and 1640 µM and the GI50 (UO-31 renal) was over 100 µM. For the same compound, the TGI (UO-31 renal) was > 100 µM and 1620 µM.
COC(=O)C1=Cc2cc(OC)c(OC)cc2[C@H](c2ccc(OC)c(OC)c2)C1C(=O)OC (some centres undefined) showed a TGI (786-0 renal) of over 100 µM, a TGI (IGROV1 ovarian) of over 100 µM and a TGI (MALME-3M melanoma) of over 100 µM. The TGI (NCI-H460 lung) was over 100 µM, the TGI (SF-268 CNS) was over 100 µM and the TGI (SN12C renal) was over 100 µM. The TGI (UO-31 renal) was over 100 µM.
With COc1cccc(NC(=O)C(C)(C)C)c1SSc1c(NC(=O)C(C)(C)C)cccc1OC the TGI (786-0 renal) was 53.1 µM, the TGI (IGROV1 ovarian) was over 100 µM and the TGI (MALME-3M melanoma) was over 63.4 µM. It also gave a TGI (NCI-H460 lung) of over 100 µM, a TGI (NCI-H522 lung) of 27.2 µM and a TGI (SF-268 CNS) of 32.7 µM. It also gave a TGI (SN12C renal) of over 54.9 µM and a TGI (UO-31 renal) of over 88.9 µM.

From PubChem BioAssay (NCI)
